# Experimental data reported in patent US10183950B2, “Thienopyrimidine inhibitors of atypical protein kinase C” (Cancer Research Technology Limited, priority 2011, dated 2019).
# Biological target: T1, full-length human PKCι (Homo sapiens, UniProt P41743)
# T1 construct: Recombinant, full-length human PKCι expressed in Sf21 insect cells is also commercially available; purchased; host or cells: Sf21 insect cells
# T1 sequence (P41743 1-596): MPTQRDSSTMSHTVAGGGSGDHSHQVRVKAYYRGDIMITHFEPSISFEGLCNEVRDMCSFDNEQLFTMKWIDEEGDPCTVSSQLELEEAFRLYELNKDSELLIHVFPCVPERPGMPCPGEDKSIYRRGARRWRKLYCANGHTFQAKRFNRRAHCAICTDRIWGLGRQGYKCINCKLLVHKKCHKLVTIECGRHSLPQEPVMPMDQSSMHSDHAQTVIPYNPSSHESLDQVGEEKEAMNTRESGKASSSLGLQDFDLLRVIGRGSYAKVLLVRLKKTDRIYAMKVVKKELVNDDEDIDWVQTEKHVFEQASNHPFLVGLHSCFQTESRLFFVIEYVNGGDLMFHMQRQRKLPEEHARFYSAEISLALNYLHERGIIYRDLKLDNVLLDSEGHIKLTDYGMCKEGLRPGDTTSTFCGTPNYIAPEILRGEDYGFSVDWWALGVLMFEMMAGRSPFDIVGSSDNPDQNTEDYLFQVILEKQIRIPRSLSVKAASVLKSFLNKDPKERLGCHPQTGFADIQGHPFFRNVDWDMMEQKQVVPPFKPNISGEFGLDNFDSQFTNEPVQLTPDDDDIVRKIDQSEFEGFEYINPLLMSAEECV
# Experiment: PKCι IC50 IMAP fluorescence polarisation assay, full-length enzyme
# Type: biochemical
# Settings: full length PKCi at 15 μM ATP; read-out: IC50 in IMAP assay against full length PKCi
row,Compound,IC50
1,"NC(CNc1nc(-c2ccncc2F)nc2c(-c3ccc(CO)cc3)csc12)Cc1ccccc1 (stereo in doubt) [compound 424, {4-[4-((R)-2-Amino-3-phenyl-propylamino)-2-(3-fluoro-pyridin-4-yl)-thieno[3,2-d]pyrimidin-7-yl]-phenyl}-methanol]",1 to 10 µM
2,"N[C@H](CNc1nc(-c2ccncc2)nc2c(C#Cc3ccccc3F)csc12)Cc1ccccc1 [compound 530, (S)-N*1*-[7-(2-Fluoro-phenylethynyl)-2-pyridin-4-yl-thieno[3,2-d]pyrimidin-4-yl]-3-phenyl-propane-1,2-diamine]",0.1 to 1 µM
3,CC[C@H](O)C#Cc1csc2c(NC[C@@H](N)Cc3ccccc3)nc(-c3ccncc3)nc12 [compound 521],< 0.1 µM
4,"Cc1sc2c(NC[C@@H](N)Cc3ccccc3)nc(-c3ccncc3)nc2c1-c1ccc(F)nc1 [compound 438, (S)-N*1*-[7-(6-Fluoro-pyridin-3-yl)-6-methyl-2-pyridin-4-yl-thieno[3,2-d]pyrimidin-4-yl]-3-phenyl-propane-1,2-diamine]",1 to 10 µM
5,"COc1cnccc1-c1c(C)sc2c(NC[C@@H](N)Cc3ccccc3)nc(-c3ccncc3)nc12 [compound 456, (S)-N*1*-[7-(3-Methoxy-pyridin-4-yl)-6-methyl-2-pyridin-4-yl-thieno[3,2-d]pyrimidin-4-yl]-3-phenyl-propane-1,2-diamine]",10 to 40 µM
6,"NC(CNc1nc(-c2ccncc2F)nc2c(-c3ccncc3)csc12)Cc1ccccc1 (stereo in doubt) [compound 429, (R)-N*1*-[2-(3-Fluoro-pyridin-4-yl)-7-pyridin-4-yl-thieno[3,2-d]pyrimidin-4-yl]-3-phenyl-propane-1,2-diamine]",1 to 10 µM
7,"N[C@H](CNc1nc(-c2ccncc2F)nc2c(-c3ccccc3)csc12)Cc1ccccc1 [compound 434, (S)-N*1*-[2-(3-Fluoro-pyridin-4-yl)-7-phenyl-thieno[3,2-d]pyrimidin-4-yl]-3-phenyl-propane-1,2-diamine]",1 to 10 µM
8,"N[C@H](CNc1nc(-c2ccncc2)nc2c(C#CCCCO)csc12)Cc1ccccc1 [compound 535, 5-[4-((S)-2-Amino-3-phenyl-propylamino)-2-pyridin-4-yl-thieno[3,2-d]pyrimidin-7-yl]-pent-4-yn-1-ol]",1 to 10 µM
9,"NC(CNc1nc(-c2ccncc2F)nc2c(-c3cccc(CO)c3)csc12)Cc1ccccc1 (stereo in doubt) [compound 425, {3-[4-((R)-2-Amino-3-phenyl-propylamino)-2-(3-fluoro-pyridin-4-yl)-thieno[3,2-d]pyrimidin-7-yl]-phenyl}-methanol]",1 to 10 µM
10,"NC(CNc1nc(-c2ccncc2F)nc2c(-c3ccco3)csc12)Cc1ccccc1 (stereo in doubt) [compound 432, (R)-N*1*-[2-(3-Fluoro-pyridin-4-yl)-7-furan-2-yl-thieno[3,2-d]pyrimidin-4-yl]-3-phenyl-propane-1,2-diamine]",0.1 to 1 µM
11,"N[C@H](CNc1nc(-c2cc[n+]([O-])cc2)nc2c(Br)csc12)Cc1ccccc1 [compound 564, (S)—N*1*-[7-Bromo-2-(1-oxy-pyridin-4-yl)-thieno[3,2-d]pyrimidin-4-yl]-3-phenyl-propane-1,2-diamine]",1 to 10 µM
12,"NC(CNc1nc(-c2ccncc2F)nc2c(-c3ccoc3)csc12)Cc1ccccc1 (stereo in doubt) [compound 426, (R)-N*1*-[2-(3-Fluoro-pyridin-4-yl)-7-furan-3-yl-thieno[3,2-d]pyrimidin-4-yl]-3-phenyl-propane-1,2-diamine]",0.1 to 1 µM
13,"CC(O)CC#Cc1csc2c(NC[C@@H](N)Cc3ccccc3)nc(-c3ccncc3)nc12 (stereo partly drawn) [compound 536, 5-[4-((S)-2-Amino-3-phenyl-propylamino)-2-pyridin-4-yl-thieno[3,2-d]pyrimidin-7-yl]-pent-4-yn-2-ol]",< 0.1 µM

# More lines, now with the values ahead:
row,IC50,Compound
1,< 0.1 µM,"C[C@H](O)C#Cc1csc2c(N[C@@H]3CCNC3)nc(-c3ccncc3)nc12 [compound 517, (S)-4-[2-Pyridin-4-yl-4-((R)-pyrrolidin-3-ylamino)-thieno[3,2-d]pyrimidin-7-yl]-but-3-yn-2-ol]"
2,0.1 to 1 µM,"O=C(Nc1ccccc1)Nc1cc(-c2nc(N[C@@H]3CCNC3)c3sccc3n2)ccn1 [compound 575, 1-Phenyl-3-{4-[4-((R)-pyrrolidin-3-ylamino)-thieno[3,2-d]pyrimidin-2-yl]-pyridin-2-yl}-urea]"
3,1 to 10 µM,"N#Cc1cccc(Nc2cc(-c3nc(N[C@@H]4CCNC4)c4sccc4n3)ccn2)c1 [compound 606, 3-{4-[4-((R)-Pyrrolidin-3-ylamino)-thieno[3,2-d]pyrimidin-2-yl]-pyridin-2-ylamino}-benzonitrile]"
4,0.1 to 1 µM,"C[C@H](Nc1cc(-c2nc(N[C@@H]3CCNC3)c3sccc3n2)ccn1)c1ccccc1 [compound 587, {2-[2-((S)-1-Phenyl-ethylamino)-pyridin-4-yl]-thieno[3,2-d]pyrimidin-4-yl}-(R)-pyrrolidin-3-yl-amine]"
5,1 to 10 µM,"CC[C@@H](Nc1cc(-c2nc(N[C@@H]3CCNC3)c3sccc3n2)ccn1)c1ccccc1 [compound 590, {2-[2-((R)-1-Phenyl-propylamino)-pyridin-4-yl]-thieno[3,2-d]pyrimidin-4-yl}-(R)-pyrrolidin-3-yl-amine]"
6,0.1 to 1 µM,"CN1CCN(c2ccc(Nc3cc(-c4nc(N[C@@H]5CCNC5)c5sccc5n4)ccn3)nc2)CC1 [compound 603, (2-{2-[5-(4-Methyl-piperazin-1-yl)-pyridin-2-ylamino]-pyridin-4-yl}-thieno[3,2-d]pyrimidin-4-yl)-(R)-pyrrolidin-3-yl-amine]"
7,1 to 10 µM,"CC(C)Nc1cc(-c2nc(N[C@@H]3CCNC3)c3sccc3n2)ccn1 [compound 626, [2-(2-Isopropylamino-pyridin-4-yl)-thieno[3,2-d]pyrimidin-4-yl]-(R)-pyrrolidin-3-yl-amine]"
8,1 to 10 µM,"Fc1cccc(Nc2csc3c(N[C@@H]4CCNC4)nc(-c4ccncc4F)nc23)c1 [compound 499, N*7*-(3-Fluoro-phenyl)-2-(3-fluoro-pyridin-4-yl)-N*4*-(R)-pyrrolidin-3-yl-thieno[3,2-d]pyrimidine-4,7-diamine]"
9,10 to 40 µM,"Fc1cnccc1-c1nc(N[C@@H]2CCNC2)c2scc(Nc3ccon3)c2n1 [compound 497, 2-(3-Fluoro-pyridin-4-yl)-N*7*-isoxazol-3-yl-N*4*- (R)-pyrrolidin-3-yl-thieno[3,2-d]pyrimidine-4,7-diamine]"
10,10 to 40 µM,"Brc1csc2c(NC[C@@H]3CCCN3)nc(-c3ccncc3)nc12 [compound 341, (7-Bromo-2-pyridin-4-yl-thieno[3,2-d]pyrimidin-4-yl)-(S)-1-pyrrolidin-2-ylmethyl-amine]"
11,10 to 40 µM,"Cc1c(-c2ccnn2C)sc2c(N[C@@H]3CCNC3)nc(-c3ccncc3)nc12 [compound 469, [7-Methyl-6-(2-methyl-2H-pyrazol-3-yl)-2-pyridin-4-yl-thieno[3,2-d]pyrimidin-4-l]-(R)-pyrrolidin-3-yl-amine]"

# Same assay, conditions: full length PKCi at 15 μM ATP; read-out: IC50 in IMAP assay against full length PKCi (Activity)
row,IC50,Compound
1,1 to 10 µM,"N[C@H](CNc1nc(-c2ccncc2)nc2sc3c(c12)CCCC3)Cc1ccccn1 [compound 58, (S)-3-Pyridin-2-yl-N*1*-(2-pyridin-4-yl-5,6,7,8-tetrahydro-benzo[4,5]thieno[2,3-d]pyrimidin-4-yl)-propane-1,2-diamine]"
2,0.1 to 1 µM,"N[C@H](CNc1nc(-c2ccncc2)nc2sc3c(c12)CCCC3)Cc1cccc(O)c1 [compound 66, 3-[(S)-2-Amino-3-(2-pyridin-4-yl-5,6,7,8-tetrahydro-benzo[4,5]thieno[2,3-d]pyrimidin-4-ylamino)-propyl]-phenol]"
3,0.1 to 1 µM,"COc1ccc(C[C@H](N)CNc2nc(-c3ccncc3)nc3sc4c(c23)CCCC4)cc1 [compound 47, (S)-3-(4-Methoxy-phenyl)-N*1*-(2-pyridin-4-yl-5,6,7,8-tetrahydro-benzo[4,5]thieno[2,3-d]pyrimidin-4-yl)-propane-1,2-diamine]"
4,10 to 40 µM,"CCC(=O)N1CCc2c(sc3nc(-c4ccncc4)nc(NCCN)c23)C1 [compound 106, 1-[4-(2-Amino-ethylamino)-2-pyridin-4-yl-5,8-dihydro-6H-pyrido[4′,3′:4,5]thieno[2,3-d]pyrimidin-7-yl]-propan-1-one]"
5,1 to 10 µM,"N[C@H](CNc1nc(-c2ccncc2)nc2sc3c(c12)CCCC3)Cc1ccncc1 [compound 56, (S)-3-Pyridin-4-yl-N*1*-(2-pyridin-4-yl-5,6,7,8-tetrahydro-benzo[4,5]thieno[2,3-d]pyrimidin-4-yl)-propane-1,2-diamine]"
6,0.1 to 1 µM,"N[C@H](CNc1nc(-c2ccncc2)nc2sc3c(c12)CCCC3)Cc1ccccc1F [compound 51, (S)-3-(2-Fluoro-phenyl)-N*1*-(2-pyridin-4-yl-5,6,7,8-tetrahydro-benzo[4,5]thieno[2,3-d]pyrimidin-4-yl)-propane-1,2-diamine]"
7,1 to 10 µM,"N[C@H](CNc1nc(-c2ccncc2)nc2sc3c(c12)CCOC3)Cc1ccccc1 [compound 82, (S)-3-Phenyl-N*1*-(2-pyridin-4-yl-5,8-dihydro-6H-pyrano[4′,3′:4,5]thieno[2,3-d]pyrimidin-4-yl)-propane-1,2-diamine]"
